Earlier results, collected in US20230363996A1, “HAIR CARE COMPOSITION” (Conopco, Inc., d/b/a UNILEVER, priority 2020, published 2023).

Details: organic/aqueous partition

| Compound | log P |
| --- | --- |
| COc1ccc(C(=O)c2ccc(OC)cc2O)c(O)c1 [benzophenone-6] | 4.78 |
| COc1ccc(C(=O)c2ccccc2O)c(O)c1 [benzophenone-8] | 4.31 |
| COc1ccc(C(=O)c2ccccc2)c(O)c1 [benzophenone-3] | 3.99 |
| COc1cc(O)c(C(=O)c2ccccc2)cc1S(=O)(=O)O [Benzophenone-4, reference compound] | Benzophenone-4 (logP = 0.99) |
| COc1ccc(C(=O)c2ccc(C)cc2)c(O)c1 [benzophenone-10] | 4.66 |
| O=C(c1ccc(O)cc1O)c1ccc(O)cc1O [benzophenone-2] | 3.09 |
| O=C(c1ccccc1)c1ccc(O)cc1O [benzophenone-1] | 3.15 |
| O=C(c1ccccc1)c1cc(Cl)ccc1O [benzophenone-7] | 4.51 |
